Earlier results, collected in patent US12622943B2, “Composition for relieving woman menopausal symptom comprising a mixed extract of hop and citrus peel and method for treating or alleviating menopausal symptom using the same” (LG HOUSEHOLD & HEALTH CARE LTD., priority 2022, dated 2026).

Test system: uterine weight
Conditions: administered to animals at high doses

uterine weight: increased
Compound: CC(C)=CCc1c(O)cc(O)c2c1O[C@H](c1ccc(O)cc1)CC2=O [8-Prenylnaringenin]
